# Measurements taken from publication PMC13070491, “Single-nucleus transcriptomics, pharmacokinetics, and pharmacodynamics of CDK4/6 and mTOR inhibition in a Phase 0/1 trial of recurrent high-grade glioma” (Neuro-Oncology, 2025).
# System: GB126, GB239 and GB86 patient-derived cell lines
# Experiment: In vitro single-cell RNA sequencing, analyses across the cell lines (pseudobulk differential gene expression, GSEA, non-cycling cells)
# Type: cell-based, human
# Conditions: pseudobulk, ribociclib versus control (DMSO)
# Procedure: Patient-derived glioma stem cell lines (GSCs; GB126, GB86, and GB239) were established from resected GBM tumor tissue. Cell lines were genetically profiled for mutations and copy number aberrations using the IvySeq custom gene panel. […] GB239 was derived from a tumor sample included in this Phase 0 trial (tumor sample: 100-0039). All human GSCs were cultured as described previously.[12]
# Following the fifth day of drug exposure, cells were harvested, cryopreserved to be processed at a later point, or immediately processed for single-cell RNA sequencing (10x Genomics, 3’ version 3). The single-cell RNA sequencing data were then processed via cellranger count and Seurat. Briefly, cells were filtered out based on the following criteria: minimum number of genes detected >500 and <10 000 with a maximum percentage of mitochondrial genes set to 10%. Statistical assessment was made between the malignant proportions of each cell state using a 2-sided paired t-test.
# Descriptive statistics of the clinical data are included in Table 1. Comparisons between groups were conducted using a 2-sided or paired 2-sided t-test, where indicated. P < .05 was considered significant. Multiple hypothesis test corrections (ie, false discovery rate correction) were applied for snRNAseq pseudobulk differential expression analysis.
compound,measurement,setting,value
CN(C)C(=O)c1cc2cnc(Nc3ccc(N4CCNCC4)cn3)nc2n1C1CCCC1 [ribo],log2FoldChange RTP4,gene RTP4,2.131
same,log2FoldChange,gene SAC3D1,-1.1095
same,log2FoldChange SEC16B,gene SEC16B,1.622
same,log2FoldChange,gene SGO1,-1.732
same,log2FoldChange,gene SHISA8,-1.822
same,log2FoldChange,gene SLC2A4RG,-1.127
same,log2FoldChange SNCG,gene SNCG,1.82
same,log2FoldChange,gene SNRPB,-1.13
same,log2FoldChange SP6,gene SP6,1.619
same,log2FoldChange SPTBN5,gene SPTBN5,1.5798
same,log2FoldChange,gene STARD8,-1.058
same,log2FoldChange,gene TCF19,-1.684
same,log2FoldChange,gene TEKT2,-1.108
same,log2FoldChange TEKT4,gene TEKT4,1.53
same,log2FoldChange TEX29,gene TEX29,1.88
same,log2FoldChange TLR8,gene TLR8,1.7124
same,log2FoldChange TM4SF4,gene TM4SF4,1.515
same,log2FoldChange TMEM88,gene TMEM88,1.467
same,log2FoldChange,gene TMPO,-1.685
same,log2FoldChange,gene TNFRSF13C,-1.634
same,log2FoldChange,gene TRPC3,-1.603
same,log2FoldChange,gene TUBA1B,-1.731
same,log2FoldChange TUSC7,gene TUSC7,1.959
same,log2FoldChange,gene TYMSOS,-1.808
same,log2FoldChange,gene UBE2S,-1.812
same,log2FoldChange,gene UHRF1,-1.689
same,log2FoldChange,gene WDR62,-1.744
same,log2FoldChange,gene XRCC2,-1.646
same,log2FoldChange ZCCHC23,gene ZCCHC23,1.565
same,"log2FoldChange, feature AC004835.1",,-1.938
same,"log2FoldChange, feature AC011139.1",,-2.033
same,"log2FoldChange, feature AC020658.4",,-2.697
same,"log2FoldChange, feature AC027277.1",,-2.37
same,"log2FoldChange, feature AC027627.1",,-3.761
same,"log2FoldChange, feature AC079753.2",,-3.036
same,"log2FoldChange, feature AC084757.2",,-2.199
same,"log2FoldChange, feature AC087721.1",,-2.244
same,"log2FoldChange, feature AC097534.1",,-1.917
same,"log2FoldChange, feature AC099845.1",,-2.325
same,"log2FoldChange, feature AF233439.1",,-2.426
same,"log2FoldChange, feature AL023803.2",,-2.112
same,"log2FoldChange, feature AL136528.1",,-3.4157
same,"log2FoldChange, feature AL606468.1",,-2.361
same,"log2FoldChange, feature AL606500.1",,-4.456
same,"log2FoldChange, feature ANLN",,-2.17
same,"log2FoldChange, feature APOLD1",,-2.2948
same,"log2FoldChange, feature ARHGEF16",,-2.5327
same,"log2FoldChange, feature ARHGEF39",,-2.785
same,"log2FoldChange, feature ASF1B",,-2.413
same,"log2FoldChange, feature ASPM",,-2.923
same,"log2FoldChange, feature AURKA",,-1.946
same,"log2FoldChange, feature AURKB",,-5.69
same,"log2FoldChange, feature BIRC5",,-4.128
same,"log2FoldChange, feature BUB1B",,-2.255
same,"log2FoldChange, feature C1QL1",,-2.176
same,"log2FoldChange, feature CCNA1",,-1.944
same,"log2FoldChange, feature CCNA2",,-3.66
same,"log2FoldChange, feature CCNB1",,-2.309
same,"log2FoldChange, feature CCNB2",,-2.58
same,"log2FoldChange, feature CDC20",,-2.615
same,"log2FoldChange, feature CDC25C",,-2.251
same,"log2FoldChange, feature CDC45",,-1.967
same,"log2FoldChange, feature CDCA2",,-2.288
same,"log2FoldChange, feature CDCA3",,-4.424
same,"log2FoldChange, feature CDCA5",,-2.481
same,"log2FoldChange, feature CDCA8",,-2.683
same,"log2FoldChange, feature CDK1",,-3.117
same,"log2FoldChange, feature CDT1",,-2.6933
same,"log2FoldChange, feature CENPE",,-2.304
same,"log2FoldChange, feature CENPF",,-2.646
same,"log2FoldChange, feature CENPM",,-2.763
same,"log2FoldChange, feature CENPU",,-1.962
same,"log2FoldChange, feature CEP55",,-2.857
same,"log2FoldChange, feature CIT",,-1.908
same,"log2FoldChange, feature CKAP2L",,-3.667
same,"log2FoldChange, feature COL2A1",,-2.114
same,"log2FoldChange, feature CSRP3-AS1",,-2.408
same,"log2FoldChange, feature DEPDC1",,-2.44
same,"log2FoldChange, feature DHRS2",,-3.141
same,"log2FoldChange, feature DIAPH3",,-2.737
same,"log2FoldChange, feature DIAPH3-AS1",,-2.318
same,"log2FoldChange, feature DLGAP5",,-4.307
same,"log2FoldChange, feature DUSP9",,-1.8912
same,"log2FoldChange, feature E2F1",,-2.143
same,"log2FoldChange, feature E2F2",,-2.717
same,"log2FoldChange, feature E2F7",,-1.962
same,"log2FoldChange, feature E2F8",,-4.471
same,"log2FoldChange, feature EMILIN3",,-2.469
same,"log2FoldChange, feature ESCO2",,-3.335
same,"log2FoldChange, feature ESPL1",,-2.787
same,"log2FoldChange, feature EXO1",,-2.588
same,"log2FoldChange, feature FAM72C",,-1.941
same,"log2FoldChange, feature FAM83D",,-2.106
same,"log2FoldChange, feature FAM111B",,-3.61
same,"log2FoldChange, feature FBLN7",,-2.095
same,"log2FoldChange, feature FBXO5",,-2.254
same,"log2FoldChange, feature FOXM1",,-3.356
same,"log2FoldChange, feature FOXN4",,-2.7907
same,"log2FoldChange, feature GTSE1",,-3.691
same,"log2FoldChange, feature H2AFX",,-1.9706
same,"log2FoldChange, feature HIST1H1B",,-4.86
same,"log2FoldChange, feature HIST1H1D",,-3.125
same,"log2FoldChange, feature HIST1H1E",,-2.149
same,"log2FoldChange, feature HIST1H2AB",,-3.666
same,"log2FoldChange, feature HIST1H2AD",,-2.176
same,"log2FoldChange, feature HIST1H2AG",,-3.09
same,"log2FoldChange, feature HIST1H2AH",,-3.181
same,"log2FoldChange, feature HIST1H2AI",,-3.193
same,"log2FoldChange, feature HIST1H2AJ",,-3.606
same,"log2FoldChange, feature HIST1H2AK",,-2.038
same,"log2FoldChange, feature HIST1H2AL",,-4.067
same,"log2FoldChange, feature HIST1H2AM",,-2.962
same,"log2FoldChange, feature HIST1H2BB",,-4.24
same,"log2FoldChange, feature HIST1H2BF",,-2.791
same,"log2FoldChange, feature HIST1H2BH",,-2.674
same,"log2FoldChange, feature HIST1H2BI",,-3.141
same,"log2FoldChange, feature HIST1H2BK",,-2.1572
same,"log2FoldChange, feature HIST1H2BL",,-3.055
same,"log2FoldChange, feature HIST1H2BM",,-3.899
same,"log2FoldChange, feature HIST1H2BO",,-4.102
same,"log2FoldChange, feature HIST1H3A",,-2.494
same,"log2FoldChange, feature HIST1H3B",,-4.012
same,"log2FoldChange, feature HIST1H3C",,-3.43
same,"log2FoldChange, feature HIST1H3D",,-3.164
same,"log2FoldChange, feature HIST1H3F",,-4.011
same,"log2FoldChange, feature HIST1H3G",,-5.89
same,"log2FoldChange, feature HIST1H3I",,-2.396
same,"log2FoldChange, feature HIST1H4A",,-2.4627
same,"log2FoldChange, feature HIST1H4B",,-3.363
same,"log2FoldChange, feature HIST1H4C",,-2.564
same,"log2FoldChange, feature HIST1H4D",,-2.3219
same,"log2FoldChange, feature HIST1H4L",,-3.364
same,"log2FoldChange, feature HIST2H2AA4",,-2.973
same,"log2FoldChange, feature HIST2H2AB",,-2.432
same,"log2FoldChange, feature HIST2H2AC",,-2.094
same,"log2FoldChange, feature HIST2H3D",,-3.112
same,"log2FoldChange, feature HIST2H4B",,-3.0547
same,"log2FoldChange, feature HJURP",,-3.812
same,"log2FoldChange, feature HMGB2",,-3.4975
same,"log2FoldChange, feature HMGN2",,-1.988
same,"log2FoldChange, feature HMMR",,-2.398
same,"log2FoldChange, feature HMMR-AS1",,-1.986
same,"log2FoldChange, feature IQGAP3",,-3.825
same,"log2FoldChange, feature KIF2C",,-3.46
same,"log2FoldChange, feature KIF4A",,-3.264
same,"log2FoldChange, feature KIF11",,-2.445
same,"log2FoldChange, feature KIF14",,-1.93
same,"log2FoldChange, feature KIF15",,-2.295
same,"log2FoldChange, feature KIF18B",,-3.458
same,"log2FoldChange, feature KIF20A",,-5.621
same,"log2FoldChange, feature KIF23",,-2.582
same,"log2FoldChange, feature KIFC1",,-3.063
same,"log2FoldChange, feature KNL1",,-2.569
same,"log2FoldChange, feature LHX2",,-2.082
same,"log2FoldChange, feature LINC00243",,-2.438
same,"log2FoldChange, feature LINC01647",,-5.161
same,"log2FoldChange, feature LINC01775",,-2.182
same,"log2FoldChange, feature LMNB1",,-1.981
same,"log2FoldChange, feature MCM10",,-2.2
same,"log2FoldChange, feature MELK",,-2.093
same,"log2FoldChange, feature MIR924HG",,-2.274
same,"log2FoldChange, feature MKI67",,-6.243
same,"log2FoldChange, feature MUC22",,-3.844
same,"log2FoldChange, feature MXD3",,-2.803
same,"log2FoldChange, feature MYB",,-2.501
same,"log2FoldChange, feature MYBL2",,-3.875
same,"log2FoldChange, feature NCAPG",,-2.9227
same,"log2FoldChange, feature NCAPH",,-2.746
same,"log2FoldChange, feature NDC80",,-2.667
same,"log2FoldChange, feature NEIL3",,-3.743
same,"log2FoldChange, feature NEK2",,-3.576
same,"log2FoldChange, feature NEURL1B",,-1.929
same,"log2FoldChange, feature NMU",,-2.574
same,"log2FoldChange, feature NRM",,-1.8865
same,"log2FoldChange, feature NRTN",,-3.311
same,"log2FoldChange, feature NT5DC4",,-2.34
same,"log2FoldChange, feature NUSAP1",,-3.196
same,"log2FoldChange, feature NXPH2",,-2.198
same,"log2FoldChange, feature PAK6",,-1.969
same,"log2FoldChange, feature PAPOLB",,-2.347
same,"log2FoldChange, feature PBK",,-3.281
same,"log2FoldChange, feature PCLAF",,-3.5822
same,"log2FoldChange, feature PCNA",,-1.969
same,"log2FoldChange, feature PIF1",,-3.124
same,"log2FoldChange, feature PIMREG",,-3.009
same,"log2FoldChange, feature PKMYT1",,-2.904
same,"log2FoldChange, feature PLK1",,-3.608
same,"log2FoldChange, feature PRC1",,-2.44
same,"log2FoldChange, feature PRIM1",,-2.274
same,"log2FoldChange, feature PTTG1",,-2.767
same,"log2FoldChange, feature RAD51AP1",,-1.918
same,"log2FoldChange, feature RAD54L",,-1.967
same,"log2FoldChange, feature RPP25",,-1.919
same,"log2FoldChange, feature RRM2",,-5.156
same,"log2FoldChange, feature SAPCD2",,-1.989
same,"log2FoldChange, feature SDC1",,-2.261
same,"log2FoldChange, feature SHCBP1",,-2.035
same,"log2FoldChange, feature SKA1",,-3.026
same,"log2FoldChange, feature SLC7A3",,-2.68
same,"log2FoldChange, feature SPAG5",,-2.024
same,"log2FoldChange, feature SPC24",,-2.603
same,"log2FoldChange, feature SPC25",,-3.836
same,"log2FoldChange, feature TACC3",,-2.439
same,"log2FoldChange, feature TICRR",,-2.318
same,"log2FoldChange, feature TK1",,-2.815
same,"log2FoldChange, feature TMPO-AS1",,-2.127
same,"log2FoldChange, feature TMSB15A",,-2.211
same,"log2FoldChange, feature TOP2A",,-4.082
same,"log2FoldChange, feature TP73",,-3.442
same,"log2FoldChange, feature TPX2",,-2.42
same,"log2FoldChange, feature TROAP",,-3.212
same,"log2FoldChange, feature TTK",,-1.967
same,"log2FoldChange, feature TYMS",,-2.957
same,"log2FoldChange, feature UBE2C",,-3.754
same,"log2FoldChange, feature UBE2T",,-1.955
same,"log2FoldChange, feature WDR76",,-2.235
same,"log2FoldChange, feature ZWINT",,-1.901
